Assay results published in publication PMC3365588 (Structure(London, England:1993), 2009).

Key:
[1] = tested on: RNH activity of HIV-1; settings: read-out: IC50, inhibition of RNH activity; previously reported; cited from earlier work
[2] = tested on: E. coli RNase H; settings: cited from earlier work
[3] = tested on: RNase H cleavage by HIV-1 RT; settings: cited from earlier work
[4] = molecular target: T1, HIV-1 RT (Human immunodeficiency virus type 1 group M subtype B, UniProt P03366); assay: Direct binding assay using surface plasmon resonance; settings: for Kd: KD^SPR
[5] = tested on: HIV-1 RT with benzoyl-L-phenylalanine in place of Tyr501; settings: cited from earlier work
[6] = tested on: HIV-1 integrase; assay: Inhibition of HIV-1 integrase; format: biochemical; settings: data not shown
[7] = molecular target: T1, HIV-1 RT; assay: Direct binding assay using intrinsic protein fluorescence; settings: KD^fluor
[8] = Enzyme + MgCl2, free enzyme (no substrate)

CC(C)c1ccccc(=O)c1O [α-thujaplicin]
IC50 [1]: 50 µM

CC(C)c1ccc(O)c(=O)c(O)c1 [β-thujaplicinol, 2,7-dihydroxy-4-(propan-2-yl)-cyclohepta-2,4,6-trien-1-one]
Fold difference of IC50, RNH of HIV-1 RT vs E. coli RNase H [2]: ~300 fold
Inhibition of polymerase-independent secondary cuts in the RNA strand [3]: inhibits polymerase-independent “secondary cuts”
Inhibition of RNase H cleavage with pre-formed Enzyme·Substrate complex ([3]; pre-steady state conditions, ref Bielhartz et al): unable to inhibit RNase H cleavage
Inhibition of polymerase dependent cleavage ([3]; ref Bielhartz et al): not an inhibitor of polymerase dependent cleavage
IC50 [4]: > 100 µM
Kd [4, 8]: 6 ± 1 µM
Kd ([4]; Enzyme, no metal (MgCl2 omitted, EDTA added)): > 100 µM
IC50 [1]: 0.21 µM
Effect of substituting benzoyl-L-phenylalanine for Tyr501 on inhibition [5]: conferred resistance to inhibition
Fold difference of IC50, RNH of HIV-1 RT vs HIV-1 integrase [6]: over 10 fold
Kd ([7]; Enzyme + MgCl2 + ds RNA (non-hydrolyzable substrate analog)): 0.185 ± 0.008 µM
Kd [7, 8]: 1 µM
